Assay results published in patent publication US10961309B2, “Reducing systemic regulatory T cell levels or activity for treatment of disease and injury of the CNS” (Yeda Research and Development Co. Ltd, priority 2014, dated 2021).

Columns and labels:
[1] = test system: IFN-γ-expressing immune cells in the CP; assay: Flow cytometry of CP IFN-γ-expressing immune cells; assay type: in vivo, mouse; settings: weekly-GA, 5XFAD AD-Tg mice, end of 1st week of regimen
Method: (§1) Mice were transcardially perfused with PBS, and tissues were treated as previously described (Baruch et al, 2013). Brains were dissected and the different brain regions were removed under a dissecting microscope (Stemi DV4; Zeiss) in PBS, and tissues were dissociated using the gentleMACS™ dissociator (Miltenyi Biotec). Choroid plexus tissues were isolated from the lateral, third and fourth ventricles of the brain, incubated at 37° C. for 45 min in PBS (with Ca^2+/Mg^2+) containing 400 U/ml collagenase type IV (Worthington Biochemical Corporation), and then manually homogenized by pipetting. Spleens were mashed with the plunger of a syringe and treated with ACK (ammonium chloride potassium) lysing buffer to remove erythrocytes. In all cases, samples were stained according to the manufacturers' protocols. All samples were filtered through a 70 μm nylon mesh, and blocked with anti-Fc CD16/32 (1:100; BD Biosciences). For intracellular staining of IFN-γ, the cells were incubated with […] (10 ng/ml; Sigma-Aldrich) and ionomycin (250 ng/ml; Sigma-Aldrich) for 6 h, and Brefeldin-A (10 μg/ml; Sigma-Aldrich) was added for the last 4 h. Intracellular labeling of cytokines was done with BD Cytofix/Cytoperm™ Plus fixation/permeabilization kit (cat. no. 555028). […] Cells were analyzed on an LSRII cytometer (BD Biosciences) using FlowJo software. […]

[2] = test system: APP/PS1 mouse model of AD; settings: weekly administration regimen (Butovsky et al, 2006); cited from earlier work
Foxp3+ Tregs = assay: Conditional ablation of Treg by DTx, confirmed by flow cytometry; assay type: in vivo, mouse
Method: as §1

Substance | IFN-γ-producing cells at the CP [1] | effect in the APP/PS1 mouse model of AD [2] | depletion of the GFP-expressing FoxP3+ CD4+ Treg cells (Foxp3+ Tregs; blood and spleen, Foxp3.LuciDTR mice, DTx 8 ng/g i.p. daily 4 consecutive days) [%] | depletion of Foxp3+ cells (Foxp3+ Tregs; splenocytes from AD-Tg/Foxp3-DTR+/− mice, 1 day after last injection, DTx i.p. 4 days) [%]
Glatiramer acetate [GA] | increase | therapeutic effect |  | 
Diphtheria toxin [DTx] |  |  | > 99 | ~99
